This note sets out measurements from patent EP4624466A1, “DEGRADER FOR DECOMPOSING CMET PROTEIN, AND PHARMACEUTICAL COMPOSITION COMPRISING SAME” (Innocure Therapeutics, Inc., priority 2022, dated 2024).

Read-outs that look alike come from different tables or passages of the source. Where only a bound is given, the exact number is not on record here.

For experiment [1], the system named is MKN-45. The experiment can be described thus: Cell viability / antiproliferative assay (WST-8), MKN-45.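 As to all read-outs here: MKN-45 is a human gastric cancer line overexpressing c-MET, growth inhibition read as WST-8 formazan absorbance at 450 nm after 2 h dye incubation.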 As to conditions: for IC50: read-out: MKN-45 IC50.
For experiment [2], the target named is T1, c-MET (Homo sapiens, UniProt P08581). The experiment can be described thus: c-MET protein degradation (Simple Western), MKN-45. Further details: assess the resolution of the compound of the present invention for c-MET expressed in cells; endogenous in cells; host or cells: MKN45 (human gastric cancer). The conditions noted are these: c-MET overexpressing gastric cancer cell line MKN-45, treated 24 hours. The experiment is classed as cell-based. The essentials: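 Cells treated 24 h (gastric lines) or 48 h (lung lines); 3 µg lysate protein analysed by capillary Simple Western with anti-c-MET, normalized to GAPDH and expressed as % of 0.1% DMSO; DC50 from expression change.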
T1 sequence (P08581 25-1390): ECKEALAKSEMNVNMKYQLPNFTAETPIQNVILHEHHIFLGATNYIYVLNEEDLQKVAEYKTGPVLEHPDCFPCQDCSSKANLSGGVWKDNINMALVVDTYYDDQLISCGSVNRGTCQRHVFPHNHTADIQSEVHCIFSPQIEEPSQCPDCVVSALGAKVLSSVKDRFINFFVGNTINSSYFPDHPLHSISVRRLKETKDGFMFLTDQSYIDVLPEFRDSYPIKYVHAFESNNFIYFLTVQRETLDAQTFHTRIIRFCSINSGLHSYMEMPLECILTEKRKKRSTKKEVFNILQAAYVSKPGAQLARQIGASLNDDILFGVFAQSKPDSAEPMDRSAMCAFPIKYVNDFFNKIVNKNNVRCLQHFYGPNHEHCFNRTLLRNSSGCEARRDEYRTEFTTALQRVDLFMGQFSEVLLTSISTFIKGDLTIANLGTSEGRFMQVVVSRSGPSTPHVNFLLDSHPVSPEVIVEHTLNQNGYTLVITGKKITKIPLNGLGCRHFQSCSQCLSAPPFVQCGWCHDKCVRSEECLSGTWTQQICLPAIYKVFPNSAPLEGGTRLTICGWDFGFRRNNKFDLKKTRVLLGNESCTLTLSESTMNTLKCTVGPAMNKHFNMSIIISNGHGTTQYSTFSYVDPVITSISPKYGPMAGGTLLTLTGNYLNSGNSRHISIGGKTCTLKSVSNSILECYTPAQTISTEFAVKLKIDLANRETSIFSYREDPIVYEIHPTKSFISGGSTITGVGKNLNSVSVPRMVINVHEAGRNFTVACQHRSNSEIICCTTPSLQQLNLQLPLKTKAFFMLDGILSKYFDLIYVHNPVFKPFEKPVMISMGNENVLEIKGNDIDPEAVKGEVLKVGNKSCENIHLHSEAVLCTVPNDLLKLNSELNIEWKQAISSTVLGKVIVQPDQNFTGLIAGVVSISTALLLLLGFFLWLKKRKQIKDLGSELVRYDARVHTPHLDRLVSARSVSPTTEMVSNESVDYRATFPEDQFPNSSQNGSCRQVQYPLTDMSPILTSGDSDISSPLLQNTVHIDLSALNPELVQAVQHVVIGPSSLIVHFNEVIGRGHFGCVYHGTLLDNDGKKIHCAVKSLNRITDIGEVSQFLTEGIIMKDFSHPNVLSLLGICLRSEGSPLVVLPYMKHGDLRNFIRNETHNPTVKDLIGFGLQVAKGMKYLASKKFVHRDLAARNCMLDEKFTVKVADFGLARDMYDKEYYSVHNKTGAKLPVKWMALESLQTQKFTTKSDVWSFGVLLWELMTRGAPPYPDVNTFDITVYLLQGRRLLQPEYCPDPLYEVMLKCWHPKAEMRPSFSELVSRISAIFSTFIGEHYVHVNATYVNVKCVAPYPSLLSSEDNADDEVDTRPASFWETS

Experiment [3] deals with SNU-638. The experiment can be described thus: Cell viability / antiproliferative assay (WST-8), SNU-638. The experiment is classed as cell-based, human. As to conditions: read-out: SNU-638 IC50.
The target of experiment [4] is T1, c-MET. Nature of the experiment: c-MET protein degradation (Simple Western), SNU-638. The experiment is classed as cell-based. As to conditions: c-MET overexpressing gastric cancer cell line SNU-638, treated 24 hours. Further details: assess the resolution of the compound of the present invention for c-MET expressed in cells; endogenous in cells; host or cells: SNU638 (human gastric cancer). On the procedure:
(§1) In order to assess the resolution of the compound of the present invention for c-MET expressed in cells, cells were dispensed in a 12-well plate at a concentration of 2 × 10^5 cells/well, and then gastric cancer cell lines were treated with samples for 24 hours and lung cancer cell lines were treated for 48 hours. Cell lysates were collected using a scraper on ice, centrifuged at 4°C15,000 rpm for 30 min to obtain a protein-containing supernatant. Protein expression was then measured using the Simple Western Automated Western Blot System Abby instrument using 3 µg of protein for each sample. SDS and heat-induced denaturation proteins were separated by molecular weight, attached to capillary, reacted with anti-c-MET or anti-GAPDH antibodies, which are primary antibodies, and then reacted with HRP-conjugated secondary antibodies, and analyzed the protein expression signal with compass software. Protein expression was normalized based on the expression value of GAPDH, and protein development in each sample was measured as a percentage (%) based on 100% of samples treated with 0.1% DMSO carriers, and DC50 (concentration of a compound where 50% protein inhibition is achieved) was calculated from the change in protein expression amount due to compound treatment.

The test system of experiment [5] is EBC-1. Nature of the experiment: Cell viability / antiproliferative assay (WST-8), EBC-1. The experiment is classed as cell-based, human. As to conditions: read-out: EBC-1 IC50.
Protocol: c-MET overexpressing human gastric cancer cell lines [MKN45] and [SNU638] were cultured in RPMI medium with 10% fetal bovine serum, penicillin (100U/ml), and streptomycin (100mg/ml), and c-MET exon 14 skipping mutant human gastric cancer cell lines [Hs746T] were cultured in DMEM media. The c-MET overexpressing human lung cancer cell line EBC-1 was cultured in MEM media with the addition of 10% fetal bovine serum, penicillin (100U/ml), and streptomycin (100mg/ml). […] The compound synthesized in accordance with the present invention was prepared with a raw material solution of 10 mM dissolved in DMSO (dimethyl sulfoxide), and was sequentially diluted and processed.
In order to observe the inhibitory activity on cell growth, cells were dispensed in a 96-well plate at a concentration of 5,000 cells/well, and then treated with the compound prepared at various concentrations for 72 hours. The viability of the cells was calculated using GraphicPad Prism 8.0 software by adding 10 ml per well of WST-8 (water soluble tetrazolium salt) sample, which reacts with dehydrogenase present in the electron transport system of mitochondria to produce formazon, incubated for 2 hours, and measured absorbance at 450 nm.
Experiment [6] addresses T1, c-MET. Nature of the experiment: c-MET protein degradation (Simple Western), EBC-1. The experiment is classed as cell-based. Further details: assess the resolution of the compound of the present invention for c-MET expressed in cells; endogenous in cells; host or cells: EBC-1 (human lung cancer). The conditions noted are these: c-MET overexpressing lung cancer cell line EBC-1, treated 48 hours; Table 2. As for the experimental part: as §1

Where [7] appears, read: SNU-638 cells, 72 hours, WST-8, Table 1.

In general, IC50 refers to the point on the concentration scale where inhibition reaches its midpoint. A word on the DC50: it is the concentration giving 50% degradation. A higher DC50 goes with degradation only at high concentration. Take `Cn1cc(-c2cnc3c(nnn3C[C@@H]3CN(c4ncc(-c5ccc(CN6CCN(C(=O)CCCCCNc7ccc8c(=O)n(C9CCC(=O)NC9=O)ncc8c7)CC6)cc5)cn4)CCO3)n2)cn1` (stereo partly drawn) [ICT-0000923, 3-{6-[(6-{4-[(4-{2-[(2S)-2-{[5-(1-methyl-1H-pyrazole-4-yl)-1H-[1,2,3]triazolo[4,5-b]pyrazine-1-yl]methyl}morpholine-4-day]pyrimidine-5-yl}phenyl)methyl]piperazine-1-yl}-6-oxohexyl)amino]-1-oxo-1,2-dihydrophthalazine-2-yl}piperidine-2,6-dione]: the IC50 in experiment [1] (Homo sapiens, MKN-45, 72 h) is less than 0.1 µM; in experiment [3] (Homo sapiens, SNU-638, 72 h) it was less than 0.1 µM. Besides, in experiment [2] (Table 1), the DC50 was less than 0.1 µM.

For `Cc1nn(C2CCC(=O)NC2=O)c(=O)c2ccc(N3CCN(C4CCN(CC(=O)N5CCC(COc6cnc(-c7cccc(Cn8nc(-c9cccc(C#N)c9)ccc8=O)c7)nc6)CC5)CC4)CC3)cc12` (stereo not shown) [ICT-0001255], the IC50 in experiment [1] (Homo sapiens, MKN-45, 72 h) is less than 0.1 µM; in experiment [3] (Homo sapiens, SNU-638, 72 h), less than 0.1 µM. The compound further displayed a DC50 in experiment [2] (Table 2) of less than 0.1 µM.

`Cc1nn(C2CCC(=O)NC2=O)c(=O)c2cc(N3CCN(CC4CCN(CCN5CCC(COc6cnc(-c7cccc(Cn8nc(-c9cccc(C#N)c9)ccc8=O)c7)nc6)CC5)CC4)CC3)c(F)cc12` (stereo not shown) [ICT-0001326] showed a DC50 in experiment [4] (Table 2) greater than 1 µM. The 50% inhibitory concentration (IC50) in experiment [3] (Homo sapiens, SNU-638, 72 h) lay within 0.1 to 1 µM.

Take `Cn1cc(-c2cnc3c(nnn3C[C@@H]3CN(c4ncc(-c5ccc(CN6CCN(CC(=O)N7CCN(c8ccc(NC9CCC(=O)NC9=O)cc8F)CC7)CC6)cc5)cn4)CCO3)n2)cn1` (stereo partly shown) [ICT-0001379]: in experiment [4] (Table 1), the DC50 was less than 0.1 µM. The IC50 was less than 0.1 µM in experiment [5] (EBC-1 cells, 72 hours, WST-8, Table 1) and less than 0.1 µM in experiment [3] (setting [7]).

Take `Cn1cc(-c2cnc3c(nnn3C[C@@H]3CN(c4ncc(-c5ccc(CN6CCN(C(=O)CCCCNc7ccc8c(=O)n(C9CCC(=O)NC9=O)ncc8c7)CC6)cc5)cn4)CCO3)n2)cn1` (stereo partly drawn) [ICT-0000924, 3-(6-((5-(4-(4-(2-((S)-2-((5-(1-methyl-1H-pyrazole-4-yl)-1H-[1,2,3]triazolo[4,5-b]pyrazine-1-yl)methyl)morpholino)pyrimidine-5-yl)benzyl)piperazine-1-yl)5-oxopentyl)amino)1-oxopthalazine-2(1H)-yl)piperidine-2,6-dione]: the IC50 in experiment [1] (Homo sapiens, MKN-45, 72 h) was less than 0.1 µM; in experiment [3] (Homo sapiens, SNU-638, 72 h) it was less than 0.1 µM. The compound further returned a DC50 in experiment [2] (Table 1) of less than 0.1 µM.

As to `Cc1nn(C2CCC(=O)NC2=O)c(=O)c2cc(N3CCN(CCN4CCC(COc5cnc(-c6cccc(Cn7nc(-c8cccc(C#N)c8)ccc7=O)c6)nc5)CC4)CC3)ccc12` (stereo not shown) [ICT-0001278, 3-(1-{[3-(5-{[1-(2-{4-[3-(2,6-dioxopiperidin-3-yl)-1-methyl-4-oxo-3,4-dihydropthalazine-6-yl]piperazine-1-yl}ethyl)piperidine-4-day]methoxy}pyrimidine-2-yl)phenyl]methyl}6-oxo-1,6-dihydropyridazine-3-yl)benzonitrile], the half-maximal inhibitory concentration (IC50) in experiment [1] (Homo sapiens, MKN-45, 72 h) is less than 0.1 µM. In experiment [6], the DC50 was greater than 1 µM.

With `Cn1cc(-c2cnc3c(nnn3C[C@@H]3CN(c4ncc(-c5ccc(CN6CCN(C(=O)CCCNc7ccc8c(=O)n(C9CCC(=O)NC9=O)ncc8c7)CC6)cc5)cn4)CCO3)n2)cn1` (stereo partly drawn) [ICT-0000922, 3-{6-[(4-{4-[(4-{2-[(2S)-2-{[5-(1-methyl-1H-pyrazole-4-yl)-1H-[1,2,3]triazolo[4,5-b]pyrazine-1-yl]methyl}morpholine-4-il]pyrimidine-5-yl}phenyl)methyl]piperazine-1-yl}-4-oxobutyl)amino]-1-oxo-1,2-dihydroptalazine-2-yl}piperidine-2,6-dione], the IC50 in experiment [1] (Homo sapiens, MKN-45, 72 h) was less than 0.1 µM; in experiment [3] (Homo sapiens, SNU-638, 72 h), less than 0.1 µM. In experiment [2] (Table 1), this compound showed a DC50 of less than 0.1 µM.

Turning to `Cc1nn(C2CCC(=O)NC2=O)c(=O)c2cc(N3CCN(c4ccc(NCC(=O)N5CCC(COc6cnc(-c7cccc(Cn8nc(-c9cccc(C#N)c9)ccc8=O)c7)nc6)CC5)cc4)CC3)ccc12` (stereo not shown) [ICT-0001262, 3-(1-(3-(5-((1-((4-(4-(3-(2,6-dioxopiperidin-3-yl)-1-methyl-4-oxo-3,4-dihydropthalazine-6-yl)piperazine-1-yl)phenyl)glycy)piperidine-4-il)methoxy)pyrimidine-2-yl)benzyl)6-oxo-1,6-dihydropyridazine-3-yl)benzonitrile], the half-inhibitory concentration (IC50) in experiment [1] (Homo sapiens, MKN-45, 72 h) was less than 0.1 µM; in experiment [5] (Homo sapiens, EBC-1, 72 h), less than 0.1 µM. This compound showed a half-maximal degradation concentration (DC50) in experiment [2] (Table 2) of less than 0.1 µM.

As to `N#Cc1cccc(-c2ccc(=O)n(Cc3cccc(-c4ncc(OCC5CCN(C(=O)CN6CCN(c7ccc8c(=O)n(C9CCC(=O)NC9=O)ncc8c7)CC6)CC5)cn4)c3)n2)c1` (stereo not shown) [ICT-0000979, 3-(1-{[3-(5-{[1-(2-{4-[2-(2,6-dioxopiperidine-3-yl)-1-oxo-1,2-dihydrophthalazine-6-yl]piperazine-1-day}acetyl)piperidine-4-yl]methoxy}pyrimidine-2-yl)phenyl]methyl}-6-oxo-1,6-dihydropyridazine-3-yl)benzonitrile], the “MKN-45 IC50” value in experiment [1] (MKN-45 cells, 72 hours, WST-8, Table 2) was “A”. The figures for the DC50 in experiment [4] (Table 2) and in experiment [2] (Table 2) were 0.1 to 1 µM and less than 0.1 µM, respectively. For the same compound, in experiment [3] (Homo sapiens, SNU-638, 72 h), the concentration for half-maximal inhibition (IC50) was in the range of 0.1 to 1 µM.

Consider `Cn1cc(-c2cnc3c(nnn3C[C@@H]3CN(c4ncc(-c5ccc(CN6CCN(C(=O)CCCCCCNc7ccc8c(=O)n(C9CCC(=O)NC9=O)ncc8c7)CC6)cc5)cn4)CCO3)n2)cn1` (stereo partly drawn) [ICT-0000925, 3-(6-((7-(4-(4-(2-((S)-2-((5-(1-methyl-1H-pyrazole-4-yl)-1H-[1,2,3]triazolo[4,5-b]pyrazine-1-yl)methyl)morpholino)pyrimidine-5-yl)benzyl)piperazine-1-yl)7-oxoheptyl)amino)1-oxopthalazine-2(1H)-yl)piperidine-2,6-dione], for which the IC50 was less than 0.1 µM in experiment [1] (MKN-45 cells, 72 hours, WST-8, Table 1) and less than 0.1 µM in experiment [3] (setting [7]). The DC50 in experiment [2] (Table 1) was less than 0.1 µM.

Take `Cc1nn(C2CCC(=O)NC2=O)c(=O)c2ccc(N3CCN(C(=O)C4CN(CC(=O)N5CCC(COc6cnc(-c7cccc(Cn8nc(-c9cccc(C#N)c9)ccc8=O)c7)nc6)CC5)C4)CC3)cc12` (stereo not shown) [ICT-0001257]: the half-inhibitory concentration (IC50) in experiment [1] (Homo sapiens, MKN-45, 72 h) was less than 0.1 µM; in experiment [5] (Homo sapiens, EBC-1, 72 h), less than 0.1 µM. In experiment [2] (Table 2), this compound yielded a half-maximal degradation concentration (DC50) of less than 0.1 µM.

With `N#Cc1cccc(-c2ccc(=O)n(Cc3ccc(-c4ncc(OCC5CCN(CCCC#Cc6cccc7c(=O)n(C8CCC(=O)NC8=O)ncc67)CC5)cn4)cc3)n2)c1` (stereo not shown) [ICT-0001303], the DC50 in experiment [4] (Table 2) was in the range of 0.1 to 1 µM. In addition, in experiment [3] (SNU-638 cells, 72 hours, WST-8, Table 2), the half-inhibitory concentration (IC50) was less than 0.1 µM.

For `Cc1nn(C2CCC(=O)NC2=O)c(=O)c2c(NCC(=O)N3CCC(CN4CCC(COc5cnc(-c6cccc(Cn7nc(-c8cccc(C#N)c8)ccc7=O)c6)nc5)CC4)CC3)cccc12` (stereo not shown) [ICT-0000980], the 50% inhibitory concentration (IC50) was less than 0.1 µM in experiment [1] (Homo sapiens, MKN-45, 72 h) and 0.1 to 1 µM in experiment [3] (Homo sapiens, SNU-638, 72 h). The results for the half-maximal degradation concentration (DC50) in experiment [4] (Table 2) and in experiment [2] (Table 2) were greater than 1 µM and less than 0.1 µM, respectively.

Consider `Cc1nn(C2CCC(=O)NC2=O)c(=O)c2ccc(N3CCN(C4CN(CCN5CCC(COc6cnc(-c7cccc(Cn8nc(-c9cccc(C#N)c9)ccc8=O)c7)nc6)CC5)C4)CC3)cc12` (stereo not shown) [ICT-0001325], for which the 50% degradation concentration (DC50) in experiment [4] (Table 2) is greater than 1 µM. In addition, the IC50 in experiment [3] (Homo sapiens, SNU-638, 72 h) was less than 0.1 µM.

Regarding `Cc1nn(C2CCC(=O)NC2=O)c(=O)c2ccc(N3CCN(C(=O)C4CCN(CC(=O)N5CCC(COc6cnc(-c7cccc(Cn8nc(-c9cccc(C#N)c9)ccc8=O)c7)nc6)CC5)CC4)CC3)cc12` (stereo not shown) [ICT-0001218], the half-maximal inhibitory concentration (IC50) in experiment [1] (Homo sapiens, MKN-45, 72 h) is less than 0.1 µM; in experiment [3] (Homo sapiens, SNU-638, 72 h) it was less than 0.1 µM. In addition, the DC50 in experiment [4] (Table 2) and in experiment [2] (Table 2) was less than 0.1 µM in each case.

Regarding `Cn1cc(-c2cnc3c(nnn3C[C@@H]3CN(c4ncc(-c5ccc(CN6CCN(c7ccc(NC8CCC(=O)NC8=O)cc7F)CC6)cc5)cn4)CCO3)n2)cn1` (stereo partly drawn) [ICT-0001403, 3-((3-fluoro-4-(4-(4-(2-((S)-2-((5-(1-methyl-1H-pyrazole-4-yl)-1H-[1,2,3]triazolo[4,5-b]pyrazine-1-yl)methyl)morpholino)pyrimidine-5-yl)benzyl)piperazine-1-yl)phenyl)amino)piperidine-2,6-dione], the concentration for half-maximal inhibition (IC50) in experiment [5] (Homo sapiens, EBC-1 cells, 72 hours, WST-8, Table 1) is less than 0.1 µM; in experiment [3] (Homo sapiens, SNU-638 cells, 72 hours, WST-8, Table 1), less than 0.1 µM.
